Entries after “also recorded” stand apart in the source; their conditions may differ. Where two headings read alike, the source gives them in different places.
Columns and labels:
[1] = Stability in simulated intestine fluid (SIF); format: in vitro ADME; details: 1 h at 37° C.
Protocol: (§1) The stability of prodrugs in simulated gastric fluid (SGF) and simulated intestine fluid (SIF) at 37° C. were examined. SGF and SIF were prepared following reported procedures and prodrugs were incubated separately with SGF and SIF for 1 h at 37° C., processed, and analyzed using reverse-phase HPLC.

[2] = format: in vitro ADME
From the text: However, the challenge in the case of nucleotides and dinucleotides is that they contain highly acid-labile purine and pyrimidine moieties in their structures. Thus, although masking the negative charge of these molecules might aid in their cellular diffusion by increased lipohilicity, it is not known whether they will be stable in gastric mucosa long enough to be absorbed orally. […] Such degradative process is known to occur by initial protonation of nitrogen of the nucleobase followed by depurination and cleavage of the sugar ring.
as §1

[3] = Metabolism in vitro with mouse liver microsomes; format: in vitro ADME
From the text: (§2) This would support the hypothesis that the antiviral activity of 3-dApsU2′-OMe and other di-, and tri-nucleotides is due to the intact nucleotide structure and not due to its metabolites. This is in contrast to traditional antiviral nucleosides, which require metabolic activation and conversion to triphosphate derivatives for their action.

HBV = details: Iyer et al., Antimicrob. Agents and Chemotherapy, 48, 2318-2320, 2004; cited from earlier work
[4] = Metabolism in vitro with human liver microsomes; format: in vitro ADME
From the text: as §2
(§3) This is in contrast to traditional antiviral nucleosides, which require metabolic activation and conversion to triphosphate derivatives for their action.

[5] = Pharmacokinetic study in woodchuck, intravenous; format: in vivo
From the text: as §3

Vero = test: Cytotoxicity assay, Vero cell line
Protocol: (§4) We next examined the cytotoxicity profile of the pronucleotide derivatives in different cell lines such as MDBK, Vero, and HFF.
(§5) Standard MTF assays were performed in 96-well plates using the Promega CellTiter96 Non-radioactive Cell Proliferation Assay Kit in conjunction with a 96-well Plate Reader (ThermoMax, Molecular devices), and using MDBK, Vero, and TIFF cell lines (obtained from ATCC). Several controls were employed including the nucleoside analogs 3TC, AZT, and ddC, as well as, media without drugs. SDS was used as a positive cytotoxic control. All pronucleotides were tested in triplicate at concentrations of 100, 300, and 1000 μM. Following a 24-hour incubation of cells with the test substance, the MTF assay was carried out.

bovine chymotrypsin = bovine chymotrypsin (Bos taurus, UniProt P00766)
[6] = Bioreversibility (hydrolytic conversion to parent dinucleotide 5) in rabbit serum, HPLC; details: for t1/2 (min) in serum: rabbit; for time for almost complete conversion to 3′dApsU2′-OMe on serum treatment: rabbit serum, 37° C.
Protocol: (§6) Evaluation of bioreversibility of the pronucleotides was carried out in rabbit serum in phosphate buffer at 37° C. In order to monitor the hydrolytic conversion of the pronucleotides to the dinucleotide 5, aliquots of incubate were removed at different time points, processed, and analyzed using reversed-phase HPLC.
Bioreversibility studies were carried out as follows: A stock solution of each analog was prepared by dissolving 2 mg in 100 μL of DMSO. 10 μL aliquots were diluted with 90 μL of phosphate buffer (0.1 M, pH 7.0) and 100 μL aliquots of rabbit serum. The mixture was incubated at 37° C. in a water bath. Aliquots were removed at different time points and diluted with 200 μL of methanol to stop the reaction. The incubate was then centrifuged, supernatant concentrated in a speed vac and diluted with 200 μL of 0.1 M ammonium acetate buffer prior to injection into HPLC. Reversed-phase HPLC analysis was carried out using a Waters Instrument equipped with a 600Egradient controller, and a 996 photodiode array detector with Millennium software. X-terra MS C18 2.5 μm, 2.1×20 mm column and an operating gradient of 100% A to 80% B over 30 minutes of buffer A (0.1 M NH4OAc) and buffer B (80:20, CH3CN:NH4OAc) was employed. Retention time for prodrugs ranged from 16 to 18 minutes whereas that of the Rp,Sp dinucleotide 5 was 13.5, 13.8 minutes.

pig liver esterase (PLE) = system: pig liver esterase (PLE)
Protocol: as §6

[7] = pH 7.2
Protocol: as §6

HFF = test: Cytotoxicity assay, HFF cell line
Protocol: as §4, §5

MDBK = test: Cytotoxicity assay, MDBK cell line
Protocol: as §4, §5

human hepatitis B virus = format: in vivo, transgenic mice
[8] = Weight change and apparent toxicity in the HBV transgenic mouse study
Protocol: Male and female transgenic mice (founder 1.3.32) were infected with human hepatitis B virus. […] The positive control, ADV, was administered at 10 mg/kg/d. Statistical significance is indicated as *P≤0.05, **P≤0.01, ***P≤0.001 compared to placebo vehicle. Measurements of serum HBeAg, PEI are reported according to International Immuno Diagnostics standardized assay using Paul Ehrlich International Units (PEI U).

[9] = oral once daily for 14 days, 6a 400, 6k 300, ADV 10 mg/kg/d

## COC1C(OP(=O)([S-])OCC2OC(n3cnc4c(N)ncnc43)CC2O)C(CO)OC1n1ccc(=O)[nH]c1=O.[Na+] (mixture of isomers) [3-dApsU2′-OMe]
[1]
  stability in SIF: relatively stable
[2]; SGF, 37° C.
  time of decomposing in SGF: about 15 min
[2]; simulated gastric fluid
  half-life in simulated gastric fluid: less than 10 minutes
[3]
  significant metabolism in vitro: do not occur
HBV
  anti-HBV activity in the transgenic mouse model: excellent anti-HBV activity
[4]
  significant metabolism in vitro: do not occur; also recorded: absence of significant metabolism
[5]; IV
  elimination in the urine: mostly intact material
[5]; intravenous (IV) administration
  plasma half-life: about 1 h

## COC1C(OP(=O)(OCC2OC(n3cnc4c(N)ncnc43)CC2O)SCc2ccc(OC(=O)C(C)C)cc2)C(CO)OC1n1ccc(=O)[nH]c1=O (mixture of isomers) [Compound 6b]
Vero
  CC50: > 1000 µM
Bovine chymotrypsin
  hydrolytic action of bovine chymotrypsin: resistant
[6]
  time for complete conversion to the parent 5: ~3 h
Pig liver esterase (PLE)
  hydrolytic action of pig liver esterase (PLE): resistant
[7]
  time stable in phosphate buffer: up to 24 h
HFF
  CC50: > 1000 µM
MDBK
  CC50: > 1000 µM

## COC1C(OP(=O)(OCC2OC(n3cnc4c(N)ncnc43)CC2O)SCc2ccc(NC(C)=O)cc2)C(CO)OC1n1ccc(=O)[nH]c1=O (mixture of isomers) [Compound 6d]
Vero
  CC50: > 1000 µM
HFF
  CC50: > 1000 µM
MDBK
  CC50: > 1000 µM

## COC1C(OP(=O)(OCC2OC(n3cnc4c(N)ncnc43)CC2O)SCCCCOC(C)=O)C(CO)OC1n1ccc(=O)[nH]c1=O (mixture of isomers) [Compound 6e]
Vero; read-out: CC50(μM) Vero, Table 4, 24-hour incubation
  CC50: > 1000 µM
[6]
  t1/2 (min) in serum: >60^@ min
MDBK; read-out: CC50(μM) MDBK, Table 4, 24-hour incubation
  CC50: > 1000 µM

## COC1C(OP(=O)(OCC2OC(n3cnc4c(N)ncnc43)CC2O)SCCCCOC(=O)c2ccccc2)C(CO)OC1n1ccc(=O)[nH]c1=O (mixture of isomers) [Compound 6f]
Vero
  CC50: > 1000 µM
[6]
  t1/2 (min) in serum: >120^@ min
MDBK
  CC50: > 1000 µM

## COC1C(OP(=O)(OCC2OC(n3cnc4c(N)ncnc43)CC2O)SCCCCOC(=O)c2cccnc2)C(CO)OC1n1ccc(=O)[nH]c1=O (mixture of isomers) [Compound 6g]
Vero
  CC50: > 1000 µM
[6]
  t1/2 (min) in serum: >120^@ min
HFF
  CC50: > 1000 µM
MDBK
  CC50: > 1000 µM

## COC1C(OP(=O)(OCC2OC(n3cnc4c(N)ncnc43)CC2O)SCCCCNC(=O)c2ccccc2)C(CO)OC1n1ccc(=O)[nH]c1=O (mixture of isomers) [Compound 6i]
Vero
  CC50: > 1000 µM
MDBK
  CC50: > 1000 µM

## COC1C(OP(=O)(OCC2OC(n3cnc4c(N)ncnc43)CC2O)SCCCCNC(=O)c2cccnc2)C(CO)OC1n1ccc(=O)[nH]c1=O (mixture of isomers) [Compound 6j]
Vero
  CC50: > 1000 µM
HFF
  CC50: > 1000 µM
MDBK
  CC50: > 1000 µM

## COC1C(OP(=O)(OCC2OC(n3cnc4c(N)ncnc43)CC2O)SCOC(=O)OCC(C)C)C(CO)OC1n1ccc(=O)[nH]c1=O (mixture of isomers) [Compound 6s]
Vero
  Cytotoxicity assay (um) Vero: >1000 um
HFF
  Cytotoxicity assay (um) HFF: >1000 um
MDBK
  Cytotoxicity assay (um) MDBK: >1000 um

## COC1C(OP(=O)(OCC2OC(n3cnc4c(N)ncnc43)CC2O)SCOC(=O)OC(C)(C)C)C(CO)OC1n1ccc(=O)[nH]c1=O (mixture of isomers) [Compound 6t]
Vero
  Cytotoxicity assay (um) Vero: >1000 um
HFF
  Cytotoxicity assay (um) HFF: >1000 um
MDBK
  Cytotoxicity assay (um) MDBK: >1000 um

## CCCCOCCOC(=O)OCSP(=O)(OCC1OC(n2cnc3c(N)ncnc32)CC1O)OC1C(CO)OC(n2ccc(=O)[nH]c2=O)C1OC (mixture of isomers) [Compound 6u]
Vero
  Cytotoxicity assay (um) Vero: >1000 um
HFF
  Cytotoxicity assay (um) HFF: >1000 um
MDBK
  Cytotoxicity assay (um) MDBK: >300 um

## CC(C)(C)C(=O)OCOP(=O)(COCCn1cnc2c(N)ncnc21)OCOC(=O)C(C)(C)C [ADV, adefovir dipivoxil, reference compound]
Human hepatitis B virus; mouse, in vivo
  Liver HBV RNA (log transcripts ± sd): 10.5 ± 0.4 log transcripts
  QPCR Liver HBV DNA (pg/μg mean ± sd): 1.7 ± 1.1 pg/µg
  Serum HBeAg, PEI U/mL (mean ± sd): 59 ± 9.7 PEI U/mL
  Serum HBsAg (signal/cutoff units ± sd): 73 ± 52 signal/cutoff units
  Southern blot Liver HBV DNA (pg/μg mean ± sd): 0.9 ± 1.1 pg/µg

## CO[C@H]1C(OP(=O)(OC[C@H]2O[C@@H](n3cnc4c(N)ncnc43)CC2O)SCOC(=O)OC(C)C)[C@@H](CO)O[C@H]1n1ccc(=O)[nH]c1=O (some centres unmarked) [Compound 6k, S-isopropylcarbonyloxymethyl Thiophosphate Derivative 6k of 3′dApsU2′OMe]
Vero; Table 5, 24-hour incubation
  Cytotoxicity assay (um) Vero: >1000 um
[6]
  time for almost complete conversion to 3′dApsU2′-OMe on serum treatment: ~3 h
Human hepatitis B virus; [9]
  Liver HBV RNA (log transcripts ± sd): 10.8 ± 0.4 log transcripts
  QPCR Liver HBV DNA (pg/μg mean ± sd): 13.3 ± 12 pg/µg
  Serum HBeAg, PEI U/mL (mean ± sd): 67 ± 0.6 PEI U/mL
  Serum HBsAg (signal/cutoff units ± sd): 55 ± 59 signal/cutoff units
  Southern blot Liver HBV DNA (pg/μg mean ± sd): 5.7 ± 3.2 pg/µg
[8]; 400 mg/kg/d (6a), 300 mg/kg/d (6k), oral, 14 days
  apparent toxicity at the high doses employed: no apparent toxicity
[8]; [9]
  % weight change ± sd: 4.3 ± 1.8%
HFF; Table 5, 24-hour incubation
  Cytotoxicity assay (um) HFF: >1000 um
MDBK; Table 5, 24-hour incubation
  Cytotoxicity assay (um) MDBK: >1000 um

## CO[C@H]1C(OP(=O)(OC[C@H]2O[C@@H](n3cnc4c(N)ncnc43)CC2O)SCOC(=O)CCC(C)C2CCC3C4CCC5CC(O)CCC5(C)C4CC(O)C23C)[C@@H](CO)O[C@H]1n1ccc(=O)[nH]c1=O (some centres unmarked) [Compound 6l]
Vero; Table 5, 24-hour incubation
  Cytotoxicity assay (um) Vero: >1000 um
HFF; Table 5, 24-hour incubation
  Cytotoxicity assay (um) HFF: >1000 um
MDBK; Table 5, 24-hour incubation
  Cytotoxicity assay (um) MDBK: >1000 um

## CO[C@H]1C(OP(=O)(OC[C@H]2O[C@@H](n3cnc4c(N)ncnc43)CC2O)SCOC(=O)C(Cc2ccccc2)NC(=O)OC(C)(C)C)[C@@H](CO)O[C@H]1n1ccc(=O)[nH]c1=O (stereo partly drawn) [Compound 6m, N-(t-butoxycarbonyl)-L-phenylalaninate Analog 6m of 3′dApsU2′OMe]
Vero; Table 5, 24-hour incubation
  Cytotoxicity assay (um) Vero: >1000 um
[6]
  time for almost complete conversion to 3′dApsU2′-OMe on serum treatment: ~3 h
HFF; Table 5, 24-hour incubation
  Cytotoxicity assay (um) HFF: >1000 um
MDBK; Table 5, 24-hour incubation
  Cytotoxicity assay (um) MDBK: >1000 um

— patent US10344046B2, “Nucleotide and oligonucleotide prodrugs” (priority 2005, dated 2019)
